Reference: the Kinase Knowledgebase extract (Sharma et al. 2016)

Assays:
MAPK14 (human) [1] = target: MAPK14 (human) (UniProt Q16539); experiment: Inhibition of IL-1 Production in Whole Blood
MAPK14 (human) [2] = target: MAPK14 (human) (UniProt Q16539); experiment: Inhibition of IL-1 Production in LPS-Stimulated PBMCs; details: pbmc
MAPK14 (human) [3] = target: MAPK14 (human) (UniProt Q16539); experiment: Inhibition of TNF-alpha Production in LPS-Stimulated PBMCs; details: pbmc
MAPK14 (human) [4] = target: MAPK14 (human) (UniProt Q16539); experiment: Inhibition of IL-6 Production in Whole Blood
MAPK14 (human) [5] = target: MAPK14 (human) (UniProt Q16539); experiment: Inhibition of MAPK14 Kinase Activity
MAPK14 (human) [6] = target: MAPK14 (human) (UniProt Q16539); experiment: Inhibition of TNF Production in Whole Blood

Sequence of MAPK14 (human) (Q16539 whole entry, looked up): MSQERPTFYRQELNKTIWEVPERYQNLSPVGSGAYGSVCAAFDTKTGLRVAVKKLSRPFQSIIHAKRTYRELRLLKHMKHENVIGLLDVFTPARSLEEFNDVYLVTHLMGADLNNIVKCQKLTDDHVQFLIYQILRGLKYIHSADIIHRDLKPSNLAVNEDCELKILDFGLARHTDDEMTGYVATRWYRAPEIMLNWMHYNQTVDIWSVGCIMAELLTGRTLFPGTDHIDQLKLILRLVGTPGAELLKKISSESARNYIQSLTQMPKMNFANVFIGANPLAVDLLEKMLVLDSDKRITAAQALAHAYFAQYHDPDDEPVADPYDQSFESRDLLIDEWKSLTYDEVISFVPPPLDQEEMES

Row | Compound | IC50 (MAPK14 (human) [5]) | Ki (MAPK14 (human) [5]) | IC50 (MAPK14 (human) [1]) | IC50 (MAPK14 (human) [2]) | IC50 (MAPK14 (human) [3]) | IC50 (MAPK14 (human) [4]) | IC50 (MAPK14 (human) [6])
1 | COc1ccc(-c2c(=O)ncn3nc(Sc4ccc(F)cc4)ccc23)c(Cl)c1OC | – | – | > 500 nM | > 500 nM | > 500 nM | > 500 nM | > 500 nM
2 | COC(=O)CCc1ccc(SC2=NN3CNC(=O)C(c4c(Cl)cccc4Cl)=C3C=C2C)cc1 | – | – | > 500 nM | 100 to 500 nM | > 500 nM | > 500 nM | > 500 nM
3 | COC(=O)c1ccccc1Sc1ccc2c(-c3c(Cl)cccc3Cl)c(=O)ncn2n1 | – | – | > 500 nM | < 100 nM | 100 to 500 nM | – | > 500 nM
4 | CNCc1ccccc1-c1cccc(C(C(N)=O)c2c(Cl)cccc2Cl)n1 (centres undefined) | – | – | > 500 nM | > 500 nM | > 500 nM | > 500 nM | > 500 nM
5 | NC(=O)C(c1cccc(-c2ccccc2)n1)c1cc(Cl)ccc1Cl (centres undefined) | – | – | > 500 nM | 100 to 500 nM | > 500 nM | > 500 nM | > 500 nM
6 | O=c1ncn2nc(Sc3ccccc3)ccc2c1-c1c(F)cccc1C(F)(F)F | – | – | – | > 500 nM | > 500 nM | – | –
7 | CN(C)C(=O)c1ccccc1Sc1ccc2c(-c3c(Cl)cccc3Cl)c(=O)ncn2n1 | – | – | – | > 500 nM | > 500 nM | – | –
8 | Cc1cc(F)ccc1SC1=NN2CNC(=O)C(c3c(F)cccc3F)=C2C=C1 | < 100 nM | – | – | 100 to 500 nM | > 500 nM | – | –
9 | NC(=O)C(c1cccc(-c2ccccc2CN2CCNCC2)n1)c1c(Cl)cccc1Cl (centres undefined) | – | – | > 500 nM | > 500 nM | > 500 nM | > 500 nM | > 500 nM
10 | N=C(N)Nc1cc(F)c(F)cc1SC1=NN2CNC(=O)C(c3c(Cl)cccc3Cl)=C2C=C1 | – | – | – | > 500 nM | > 500 nM | – | –
11 | NC(=O)C(c1cccc(-c2cccs2)n1)c1c(Cl)cccc1Cl (centres undefined) | – | – | – | > 500 nM | > 500 nM | – | –
12 | Cc1cccc(Sc2ccc3c(-c4c(Cl)cccc4Cl)c(=O)ncn3n2)c1 | – | – | – | 100 to 500 nM | 100 to 500 nM | – | –
13 | O=c1ncn2nc(Sc3ccccc3)ccc2c1-c1c(F)cccc1F | – | – | – | > 500 nM | > 500 nM | – | –
14 | Cc1ccc(Sc2ccc3c(-c4c(Cl)cccc4Cl)c(=O)ncn3n2)cc1 | – | – | – | 100 to 500 nM | > 500 nM | – | –

The next lines start with results.

Row | IC50 (MAPK14 (human) [5]) | Ki (MAPK14 (human) [5]) | Compound | IC50 (MAPK14 (human) [1]) | IC50 (MAPK14 (human) [2]) | IC50 (MAPK14 (human) [3]) | IC50 (MAPK14 (human) [4]) | IC50 (MAPK14 (human) [6])
15 | 100 to 1000 nM | – | Nc1ccc(Cl)c(-c2c(=O)ncn3nc(Sc4ccc(F)cc4)ccc23)c1Cl | > 500 nM | 100 to 500 nM | > 500 nM | > 500 nM | > 500 nM
16 | < 100 nM | – | O=C1NCN2N=C(Sc3ccc(F)cc3F)C=CC2=C1c1cc2c(cc1Cl)OCO2 | < 250 nM | < 100 nM | < 100 nM | < 250 nM | < 250 nM
17 | > 1000 nM | – | O=C(O)c1cc(F)ccc1Sc1ccc2c(-c3c(Cl)cccc3Cl)c(=O)ncn2n1 | – | > 500 nM | > 500 nM | – | –
18 | 100 to 1000 nM | – | COc1ccc(-c2c(=O)ncn3nc(Sc4ccc(F)cc4)ccc23)cc1OC | – | > 500 nM | > 500 nM | – | –
19 | 100 to 1000 nM | – | CN(C)C=Nc1ccc(-c2c(=O)ncn3nc(Sc4cc(F)ccc4Cl)ccc23)c(Cl)c1 | – | 100 to 500 nM | > 500 nM | – | –
20 | – | > 20000 nM | O=c1ncn2nc(Sc3ccccc3)ccc2c1-c1ccccc1 | – | – | – | – | –
21 | < 100 nM | – | CCc1cc(Cl)c(C2=C3C=CC(Sc4ccc(F)cc4)=NN3CNC2=O)cc1O | > 500 nM | 100 to 500 nM | > 500 nM | > 500 nM | > 500 nM
